Test results published in the supplement of paper PMC10307832.

Assays:
Assay in all cases: relative viability (nuclei count vs DMSO), 5 days (fraction); higher = more cells survive
RAF265 + Tozasertib = compound: Cn1c(Nc2ccc(C(F)(F)F)cc2)nc2cc(Oc3ccnc(-c4ncc(C(F)(F)F)[nH]4)c3)ccc21 [RAF265] + Cc1cc(Nc2cc(N3CCN(C)CC3)nc(Sc3ccc(NC(=O)C4CC4)cc3)n2)n[nH]1 [Tozasertib] (partner 0.1 µM)
In short: (§1)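 Lung cancer cell lines were seeded in 1536-well plates and dosed by pin tool the next day, with either a single drug or a fixed anchor-drug dose combined with five library-drug doses (not always all listed) spaced in √10 steps. Five days later, one step fixed the cells and stained their nuclei (final 0.05% Triton X-100, 1% formaldehyde, 1 ug/ml Hoechst), and nuclei were counted on 4× images. Relative viability is the nuclei count in treated wells divided by the count in vehicle wells, and each value is the median of duplicate plates.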

RAF265 + Olaparib = compound: Cn1c(Nc2ccc(C(F)(F)F)cc2)nc2cc(Oc3ccnc(-c4ncc(C(F)(F)F)[nH]4)c3)ccc21 [RAF265] + O=C(c1cc(Cc2n[nH]c(=O)c3ccccc23)ccc1F)N1CCN(C(=O)C2CC2)CC1 [Olaparib] (partner 8 µM)
In short: as §1

IPA-3 + Vorinostat = compound: C1=CC=C2C(=C1)C=CC(=C2SSC3=C(C=CC4=CC=CC=C43)O)O [IPA-3] + O=C(CCCCCCC(=O)Nc1ccccc1)NO [Vorinostat] (partner 1 µM)
In short: as §1

IPA-3 + Pemetrexed = compound: C1=CC=C2C(=C1)C=CC(=C2SSC3=C(C=CC4=CC=CC=C43)O)O [IPA-3] + Nc1nc2[nH]cc(CCc3ccc(C(=O)N[C@@H](CCC(=O)O)C(=O)O)cc3)c2c(=O)[nH]1 [Pemetrexed] (partner 0.2 µM)
In short: as §1

For NCI-H596, the relative viability (RAF265 + Tozasertib; first compound 0.01 µM) was 1.04, the relative viability (RAF265 + Tozasertib; first compound 0.03162 µM) was 0.959 and the relative viability (RAF265 + Tozasertib; first compound 0.1 µM) was 1.06. It also gave a relative viability (RAF265 + Tozasertib; first compound 0.3162 µM) of 0.888, a relative viability (RAF265 + Tozasertib; first compound 1 µM) of 0.728 and a relative viability (RAF265 + Olaparib; first compound 0.01 µM) of 0.825. It also gave a relative viability (RAF265 + Olaparib; first compound 0.03162 µM) of 0.765, a relative viability (RAF265 + Olaparib; first compound 0.1 µM) of 0.711 and a relative viability (RAF265 + Olaparib; first compound 0.3162 µM) of 0.727. The relative viability (RAF265 + Olaparib; first compound 1 µM) was 0.535, the relative viability (IPA-3 + Vorinostat; first compound 0.2 µM) was 0.722 and the relative viability (IPA-3 + Vorinostat; first compound 0.6325 µM) was 0.772. For the same cell line, the relative viability (IPA-3 + Vorinostat; first compound 2 µM) was 0.578, the relative viability (IPA-3 + Vorinostat; first compound 6.325 µM) was 0.694 and the relative viability (IPA-3 + Vorinostat; first compound 20 µM) was 0.656. It also gave a relative viability (IPA-3 + Pemetrexed; first compound 0.2 µM) of 0.592, a relative viability (IPA-3 + Pemetrexed; first compound 0.6325 µM) of 0.497 and a relative viability (IPA-3 + Pemetrexed; first compound 2 µM) of 0.469. The relative viability (IPA-3 + Pemetrexed; first compound 6.325 µM) was 0.552 and the relative viability (IPA-3 + Pemetrexed; first compound 20 µM) was 0.435.
For NCI-H460, the relative viability (RAF265 + Tozasertib; first compound 0.01 µM) was 0.446, the relative viability (RAF265 + Tozasertib; first compound 0.03162 µM) was 0.468 and the relative viability (RAF265 + Tozasertib; first compound 0.1 µM) was 0.628. For the same cell line, the relative viability (RAF265 + Tozasertib; first compound 0.3162 µM) was 0.445, the relative viability (RAF265 + Tozasertib; first compound 1 µM) was 0.293 and the relative viability (RAF265 + Olaparib; first compound 0.01 µM) was 0.444. The relative viability (RAF265 + Olaparib; first compound 0.03162 µM) was 0.426, the relative viability (RAF265 + Olaparib; first compound 0.1 µM) was 0.491 and the relative viability (RAF265 + Olaparib; first compound 0.3162 µM) was 0.411. The relative viability (RAF265 + Olaparib; first compound 1 µM) was 0.28, the relative viability (IPA-3 + Vorinostat; first compound 0.2 µM) was 0.94 and the relative viability (IPA-3 + Vorinostat; first compound 0.6325 µM) was 0.665. It also gave a relative viability (IPA-3 + Vorinostat; first compound 2 µM) of 0.729, a relative viability (IPA-3 + Vorinostat; first compound 6.325 µM) of 0.626 and a relative viability (IPA-3 + Vorinostat; first compound 20 µM) of 0.504. The relative viability (IPA-3 + Pemetrexed; first compound 0.2 µM) was 0.0552, the relative viability (IPA-3 + Pemetrexed; first compound 0.6325 µM) was 0.0621 and the relative viability (IPA-3 + Pemetrexed; first compound 2 µM) was 0.0636. It also gave a relative viability (IPA-3 + Pemetrexed; first compound 6.325 µM) of 0.0626 and a relative viability (IPA-3 + Pemetrexed; first compound 20 µM) of 0.0707.
Work on HCC-366 yielded a relative viability (RAF265 + Tozasertib; first compound 0.01 µM) of 0.137, a relative viability (RAF265 + Tozasertib; first compound 0.03162 µM) of 0.165 and a relative viability (RAF265 + Tozasertib; first compound 0.1 µM) of 0.138. For the same cell line, the relative viability (RAF265 + Tozasertib; first compound 0.3162 µM) was 0.0437, the relative viability (RAF265 + Tozasertib; first compound 1 µM) was 0.0369 and the relative viability (RAF265 + Olaparib; first compound 0.01 µM) was 0.388. For the same cell line, the relative viability (RAF265 + Olaparib; first compound 0.03162 µM) was 0.38, the relative viability (RAF265 + Olaparib; first compound 0.1 µM) was 0.452 and the relative viability (RAF265 + Olaparib; first compound 0.3162 µM) was 0.397. The relative viability (RAF265 + Olaparib; first compound 1 µM) was 0.239, the relative viability (IPA-3 + Vorinostat; first compound 0.2 µM) was 0.518 and the relative viability (IPA-3 + Vorinostat; first compound 0.6325 µM) was 0.287. The relative viability (IPA-3 + Vorinostat; first compound 2 µM) was 0.339, the relative viability (IPA-3 + Vorinostat; first compound 6.325 µM) was 0.341 and the relative viability (IPA-3 + Vorinostat; first compound 20 µM) was 0.318. For the same cell line, the relative viability (IPA-3 + Pemetrexed; first compound 0.2 µM) was 0.192, the relative viability (IPA-3 + Pemetrexed; first compound 0.6325 µM) was 0.147 and the relative viability (IPA-3 + Pemetrexed; first compound 2 µM) was 0.21. It also gave a relative viability (IPA-3 + Pemetrexed; first compound 6.325 µM) of 0.169 and a relative viability (IPA-3 + Pemetrexed; first compound 20 µM) of 0.178.
For NCI-H2085, the relative viability (RAF265 + Tozasertib; first compound 0.01 µM) was 0.965, the relative viability (RAF265 + Tozasertib; first compound 0.03162 µM) was 0.706 and the relative viability (RAF265 + Tozasertib; first compound 0.1 µM) was 0.914. It also gave a relative viability (RAF265 + Tozasertib; first compound 0.3162 µM) of 0.822, a relative viability (RAF265 + Tozasertib; first compound 1 µM) of 0.558 and a relative viability (RAF265 + Olaparib; first compound 0.01 µM) of 0.954. The relative viability (RAF265 + Olaparib; first compound 0.03162 µM) was 0.723, the relative viability (RAF265 + Olaparib; first compound 0.1 µM) was 0.841 and the relative viability (RAF265 + Olaparib; first compound 0.3162 µM) was 0.854. For the same cell line, the relative viability (RAF265 + Olaparib; first compound 1 µM) was 0.76, the relative viability (IPA-3 + Vorinostat; first compound 0.2 µM) was 0.868 and the relative viability (IPA-3 + Vorinostat; first compound 0.6325 µM) was 0.756. For the same cell line, the relative viability (IPA-3 + Vorinostat; first compound 2 µM) was 0.819, the relative viability (IPA-3 + Vorinostat; first compound 6.325 µM) was 0.726 and the relative viability (IPA-3 + Vorinostat; first compound 20 µM) was 0.957. For the same cell line, the relative viability (IPA-3 + Pemetrexed; first compound 0.2 µM) was 0.89, the relative viability (IPA-3 + Pemetrexed; first compound 0.6325 µM) was 0.828 and the relative viability (IPA-3 + Pemetrexed; first compound 2 µM) was 0.864. It also gave a relative viability (IPA-3 + Pemetrexed; first compound 6.325 µM) of 0.821 and a relative viability (IPA-3 + Pemetrexed; first compound 20 µM) of 0.993.
